# Assay results reported in ChEMBL document CHEMBL1909511, “Inhalation by design: novel tertiary amine muscarinic M₃ receptor antagonists with slow off-rate binding kinetics for inhaled once-daily treatment of chronic obstructive pulmonary disease” (J Med Chem, 2011).
# Key:
# MDR1 [1] = experiment: Apparent permeability across basal to apical side in dog MDCK expressing MDR1; assay type: ADME, cell-based, Canis lupus familiaris
# [2] = Volume of distribution at steady state in iv dosed rat; assay type: ADME, organism-based; details: in vivo, read-out: Vdss
# [3] = target: T1, Muscarinic acetylcholine receptor M3 (Homo sapiens, UniProt P20309); experiment: Displacement of [3H]-NMS from human recombinant M3 receptor expressed in CHO cells after 24 hrs by filter binding assay; assay type: cell-based
# Target sequence in this assay (P20309 whole entry): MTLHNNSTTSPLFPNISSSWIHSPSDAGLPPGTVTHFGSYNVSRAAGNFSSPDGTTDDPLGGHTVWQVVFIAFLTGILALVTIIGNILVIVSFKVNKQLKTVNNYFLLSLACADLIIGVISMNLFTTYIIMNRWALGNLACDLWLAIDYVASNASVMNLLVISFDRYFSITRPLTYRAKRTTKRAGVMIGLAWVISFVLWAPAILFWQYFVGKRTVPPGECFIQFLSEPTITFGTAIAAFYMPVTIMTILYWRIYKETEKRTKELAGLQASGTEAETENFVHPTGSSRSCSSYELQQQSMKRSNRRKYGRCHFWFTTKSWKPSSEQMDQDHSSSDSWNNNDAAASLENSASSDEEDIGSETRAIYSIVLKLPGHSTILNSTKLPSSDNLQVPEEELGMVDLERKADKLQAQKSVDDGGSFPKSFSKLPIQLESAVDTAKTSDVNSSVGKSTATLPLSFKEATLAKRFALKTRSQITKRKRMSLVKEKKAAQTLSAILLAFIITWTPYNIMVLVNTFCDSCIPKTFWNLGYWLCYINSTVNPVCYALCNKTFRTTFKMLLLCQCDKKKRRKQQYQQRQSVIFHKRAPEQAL
# [4] = target: T2, Muscarinic acetylcholine receptor M4 (Homo sapiens) (UniProt P08173); experiment: Displacement of [3H]-NMS from human recombinant M4 receptor expressed in CHO cells assessed as dissociation half life at 100 fold human M4 receptor binding Ki concentration after 24 hrs by dilution-offset filter binding assay; assay type: cell-based
# T2 sequence (whole entry): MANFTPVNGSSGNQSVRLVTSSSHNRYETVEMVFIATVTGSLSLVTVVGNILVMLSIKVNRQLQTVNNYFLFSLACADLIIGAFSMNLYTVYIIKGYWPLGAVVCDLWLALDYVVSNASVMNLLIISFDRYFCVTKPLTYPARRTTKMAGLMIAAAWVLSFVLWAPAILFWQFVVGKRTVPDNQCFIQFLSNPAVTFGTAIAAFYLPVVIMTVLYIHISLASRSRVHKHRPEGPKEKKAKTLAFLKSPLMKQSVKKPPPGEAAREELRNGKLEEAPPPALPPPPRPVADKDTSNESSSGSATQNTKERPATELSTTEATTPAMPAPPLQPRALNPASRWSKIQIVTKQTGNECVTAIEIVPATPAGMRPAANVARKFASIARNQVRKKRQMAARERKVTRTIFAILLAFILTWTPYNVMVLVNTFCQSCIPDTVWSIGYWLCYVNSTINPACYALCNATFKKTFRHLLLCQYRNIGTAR
# Canis familiaris [5] = experiment: Bronchodilator activity in Beagle dog assessed as inhibition of methacholine-induced lung resistance after cumulative intratracheal administration in micelle solution at hourly intervals challenged each time 1 hr later with methacholine; assay type: functional, Canis lupus familiaris
# [6] = target: T1, Muscarinic acetylcholine receptor M3; details: CHO
# Target sequence in this assay (P20309 whole entry, looked up): as the sequence (P20309 whole entry) above
# [7] = Total clearance in iv dosed rat; assay type: ADME, organism-based; details: in vivo
# [8] = target: T3, Muscarinic acetylcholine receptor M1 (Homo sapiens) (UniProt P11229); experiment: Displacement of [3H]-NMS from human recombinant M1 receptor expressed in CHO cells assessed as dissociation half life at 100 fold human M1 receptor binding Ki concentration after 24 hrs by dilution-offset filter binding assay; assay type: cell-based
# T3 sequence (whole entry): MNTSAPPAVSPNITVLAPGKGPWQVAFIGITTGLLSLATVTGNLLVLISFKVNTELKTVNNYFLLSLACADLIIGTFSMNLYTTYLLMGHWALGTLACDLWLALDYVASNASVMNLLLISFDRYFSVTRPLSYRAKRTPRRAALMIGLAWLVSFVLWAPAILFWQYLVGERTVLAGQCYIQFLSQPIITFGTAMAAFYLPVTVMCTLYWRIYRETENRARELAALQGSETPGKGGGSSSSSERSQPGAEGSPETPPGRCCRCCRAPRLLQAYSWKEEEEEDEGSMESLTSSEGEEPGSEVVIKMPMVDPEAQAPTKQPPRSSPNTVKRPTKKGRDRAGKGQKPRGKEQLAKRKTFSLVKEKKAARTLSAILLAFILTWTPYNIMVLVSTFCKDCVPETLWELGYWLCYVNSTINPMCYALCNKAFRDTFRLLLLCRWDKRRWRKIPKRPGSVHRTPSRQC
# [9] = target: Muscarinic acetylcholine receptor M3 (Cavia porcellus, UniProt Q8VH26); experiment: Antagonist activity at M3 receptor in Dunkin-Hartley guinea pig tracheal strips assessed as inhibition of electrically field-stimulated contractile response after 8 hrs; assay type: functional
# Sequence of Muscarinic acetylcholine receptor M3 (Cavia porcellus, UniProt Q8VH26) (Q8VH26 whole entry): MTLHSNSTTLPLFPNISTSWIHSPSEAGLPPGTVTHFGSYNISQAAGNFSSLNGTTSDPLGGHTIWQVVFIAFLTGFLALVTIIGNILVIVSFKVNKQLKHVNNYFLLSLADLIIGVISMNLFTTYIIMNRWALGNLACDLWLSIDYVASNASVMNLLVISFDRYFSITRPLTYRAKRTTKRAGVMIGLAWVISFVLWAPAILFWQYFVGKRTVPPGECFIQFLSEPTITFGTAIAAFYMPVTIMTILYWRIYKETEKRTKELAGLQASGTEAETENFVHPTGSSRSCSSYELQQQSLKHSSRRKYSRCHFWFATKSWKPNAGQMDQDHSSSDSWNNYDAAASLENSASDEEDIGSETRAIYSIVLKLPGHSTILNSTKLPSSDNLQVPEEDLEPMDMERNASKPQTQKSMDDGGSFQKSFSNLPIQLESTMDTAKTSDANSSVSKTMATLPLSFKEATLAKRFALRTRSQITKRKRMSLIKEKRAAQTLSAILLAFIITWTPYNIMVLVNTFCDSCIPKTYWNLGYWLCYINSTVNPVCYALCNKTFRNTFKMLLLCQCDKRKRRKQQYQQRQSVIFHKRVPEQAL
# [10] = target: T1, Muscarinic acetylcholine receptor M3
# Target sequence in this assay (P20309 whole entry, looked up): as the sequence (P20309 whole entry) above
# Description: Displacement of radioligand from M3 receptor assessed as dissociation half life
# [11] = target: T4, Muscarinic acetylcholine receptor M2 (Homo sapiens) (UniProt P08172); experiment: Displacement of [3H]-NMS from human recombinant M2 receptor expressed in CHO cells assessed as dissociation half life at 100 fold human M2 receptor binding Ki concentration after 24 hrs by dilution-offset filter binding assay; assay type: cell-based
# T4 sequence (whole entry): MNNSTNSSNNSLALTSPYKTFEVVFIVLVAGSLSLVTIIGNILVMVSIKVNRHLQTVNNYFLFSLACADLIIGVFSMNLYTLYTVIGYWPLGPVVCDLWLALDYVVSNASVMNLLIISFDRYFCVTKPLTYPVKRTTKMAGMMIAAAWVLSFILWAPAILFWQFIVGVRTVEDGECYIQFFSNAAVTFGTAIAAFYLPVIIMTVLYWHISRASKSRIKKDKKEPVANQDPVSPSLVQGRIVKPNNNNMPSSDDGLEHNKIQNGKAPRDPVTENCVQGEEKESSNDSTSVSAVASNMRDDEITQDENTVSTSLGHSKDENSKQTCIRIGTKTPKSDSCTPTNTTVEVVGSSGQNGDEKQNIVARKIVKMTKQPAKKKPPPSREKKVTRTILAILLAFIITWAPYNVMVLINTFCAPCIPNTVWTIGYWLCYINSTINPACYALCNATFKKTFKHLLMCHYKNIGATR
# Canis familiaris [12] = experiment: Toxicity in methacholine challenged Beagle dog assessed effect on heart rate at 3 ug intratracheally administered as single dose in micelle solution; assay type: organism-based, Canis lupus familiaris; details: in vivo, inhaled_or_intranasal
# MDR1 [13] = experiment: Apparent permeability across apical to basal side in dog MDCK expressing MDR1; assay type: ADME, cell-based, Canis lupus familiaris
# Cavia porcellus = experiment: Bronchodilator activity in Dunkin-Hartley guinea pig assessed as inhibition of […] lung resistance after cumulative intratracheal administration in micelle solution at hourly intervals challenged each time 1 hr later with methacholine; assay type: functional, organism-based
# Rattus norvegicus = experiment: Unbound clearance in iv dosed rat; assay type: ADME, organism-based; details: in vivo
smiles,measurement,setting,value
CC(C)(CCC(C(N)=O)(c1ccccc1)c1ccccc1)N1CC(Oc2cccc(O)c2)C1 [PF-03635659],Papp B→A,MDR1 [1],64 ×10⁻⁶ cm/s
same,Vd,[2],8.4 L/kg
same,Ki,[3],0.128 nM
same,T1/2,[4],9.78 h
same,ID50,Canis familiaris [5],3 µg
same,T1/2,[6],> 24 h
same,clearance,[7],134 mL/min/kg
same,T1/2,[8],14 h
same,IC50,[9],1.53 nM
same,T1/2,[10],83.3 h
same,T1/2,[11],4.38 h
same,Activity,Canis familiaris [12],Non-toxic
same,Papp A→B,MDR1 [13],7 ×10⁻⁶ cm/s
same,ED50,Cavia porcellus,3 µg
same,CL free,Rattus norvegicus,2065 mL/min/kg
